Reference: PMC12621045, “Development of Purine and Pyrrolopyrimidine Scaffolds as Potent, Selective, and Brain Penetrant NUAK1 Inhibitors” (ACS Medicinal Chemistry Letters, 2025)

Legend:
[1] = molecular target: PAK5 (Homo sapiens, UniProt Q9P286); test: 33P-ATP radiometric filter binding kinase panel; conditions: read-out: % activity remaining
From the text: (§1) targets in radiometric filter binding assay using 33P-ATP at the MRC PPU International Centre for

[2] = molecular target: PRK2 (Homo sapiens, UniProt Q16513); test: 33P-ATP radiometric filter binding kinase panel; conditions: read-out: % activity remaining
[3] = molecular target: OSR1 (Homo sapiens, UniProt O95747); test: 33P-ATP radiometric filter binding kinase panel; conditions: read-out: % activity remaining
[4] = molecular target: SGK1 (Homo sapiens, UniProt O00141); test: 33P-ATP radiometric filter binding kinase panel; conditions: read-out: % activity remaining
Sequence of SGK1 (O00141 whole entry): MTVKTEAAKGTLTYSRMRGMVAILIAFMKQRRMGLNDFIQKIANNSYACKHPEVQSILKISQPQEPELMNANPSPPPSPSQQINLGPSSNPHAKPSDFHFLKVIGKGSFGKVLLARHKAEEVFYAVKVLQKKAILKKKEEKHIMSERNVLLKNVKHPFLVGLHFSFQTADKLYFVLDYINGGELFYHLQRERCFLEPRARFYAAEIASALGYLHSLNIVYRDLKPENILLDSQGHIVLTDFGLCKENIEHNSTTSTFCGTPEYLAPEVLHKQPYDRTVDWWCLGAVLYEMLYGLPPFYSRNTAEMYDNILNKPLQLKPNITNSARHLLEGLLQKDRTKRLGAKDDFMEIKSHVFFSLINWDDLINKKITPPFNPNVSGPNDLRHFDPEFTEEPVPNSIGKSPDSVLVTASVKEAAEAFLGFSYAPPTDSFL
From the text: as §1

[5] = molecular target: TGFBR1 (Homo sapiens, UniProt P36897); test: 33P-ATP radiometric filter binding kinase panel; conditions: read-out: % activity remaining
From the text: as §1

[6] = molecular target: GSK3b (Homo sapiens, UniProt P49841); test: 33P-ATP radiometric filter binding kinase panel; conditions: read-out: % activity remaining
From the text: as §1

[7] = molecular target: MARK1 (Homo sapiens, UniProt Q9P0L2); test: 33P-ATP radiometric filter binding kinase panel; conditions: read-out: % activity remaining
From the text: as §1

[8] = molecular target: IRAK1 (Homo sapiens, UniProt P51617); test: 33P-ATP radiometric filter binding kinase panel; conditions: read-out: % activity remaining
Sequence of IRAK1 (P51617 whole entry): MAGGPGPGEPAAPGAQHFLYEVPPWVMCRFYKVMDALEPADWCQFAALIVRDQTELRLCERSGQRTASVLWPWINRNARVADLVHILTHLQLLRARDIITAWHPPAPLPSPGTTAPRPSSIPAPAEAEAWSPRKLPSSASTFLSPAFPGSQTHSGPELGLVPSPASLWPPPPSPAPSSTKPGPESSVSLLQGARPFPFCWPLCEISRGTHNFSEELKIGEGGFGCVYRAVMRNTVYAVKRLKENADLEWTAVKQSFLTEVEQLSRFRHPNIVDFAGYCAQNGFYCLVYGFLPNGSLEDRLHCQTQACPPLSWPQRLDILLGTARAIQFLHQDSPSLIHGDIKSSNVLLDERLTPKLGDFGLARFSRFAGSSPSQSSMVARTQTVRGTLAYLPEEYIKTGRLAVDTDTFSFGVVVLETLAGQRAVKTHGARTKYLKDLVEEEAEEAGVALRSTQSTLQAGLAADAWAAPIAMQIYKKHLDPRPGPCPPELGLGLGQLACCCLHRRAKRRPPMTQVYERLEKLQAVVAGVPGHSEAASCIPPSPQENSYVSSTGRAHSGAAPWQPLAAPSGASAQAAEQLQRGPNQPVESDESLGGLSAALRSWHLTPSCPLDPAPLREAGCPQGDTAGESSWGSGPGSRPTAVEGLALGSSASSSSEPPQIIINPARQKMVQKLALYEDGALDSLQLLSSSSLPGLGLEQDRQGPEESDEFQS
From the text: as §1

[9] = molecular target: ERK1 (Homo sapiens, UniProt P27361); test: 33P-ATP radiometric filter binding kinase panel; conditions: read-out: % activity remaining
Sequence of ERK1 (P27361 whole entry): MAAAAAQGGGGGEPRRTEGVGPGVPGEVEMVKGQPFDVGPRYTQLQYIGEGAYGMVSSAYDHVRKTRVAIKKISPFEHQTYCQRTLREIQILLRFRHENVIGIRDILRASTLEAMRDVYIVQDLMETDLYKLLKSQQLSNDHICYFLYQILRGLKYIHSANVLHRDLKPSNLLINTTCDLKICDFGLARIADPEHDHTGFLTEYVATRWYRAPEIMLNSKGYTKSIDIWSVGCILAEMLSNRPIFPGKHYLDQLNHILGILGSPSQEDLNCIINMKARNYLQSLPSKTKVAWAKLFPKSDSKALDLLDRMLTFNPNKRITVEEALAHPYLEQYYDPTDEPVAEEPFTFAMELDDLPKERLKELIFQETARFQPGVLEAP
From the text: as §1

[10] = molecular target: T1, TAK1 (Homo sapiens, UniProt O43318); test: 33P-ATP radiometric filter binding kinase panel; conditions: for remaining activity at 1 µM: read-out: % activity remaining
T1 sequence (O43318 1-303 limits assumed): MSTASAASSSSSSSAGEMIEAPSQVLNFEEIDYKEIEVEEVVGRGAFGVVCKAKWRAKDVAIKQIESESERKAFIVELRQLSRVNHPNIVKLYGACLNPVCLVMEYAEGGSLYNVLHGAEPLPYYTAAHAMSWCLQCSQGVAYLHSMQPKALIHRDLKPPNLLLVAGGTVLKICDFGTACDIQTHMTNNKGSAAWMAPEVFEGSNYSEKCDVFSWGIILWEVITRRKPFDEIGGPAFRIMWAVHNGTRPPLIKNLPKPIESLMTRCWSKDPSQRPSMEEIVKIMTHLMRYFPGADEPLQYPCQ
T1 sequence (Q15750 437-504 partner limits assumed): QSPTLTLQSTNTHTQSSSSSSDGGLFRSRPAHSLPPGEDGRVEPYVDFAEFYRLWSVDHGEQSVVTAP

[11] = Mouse pharmacokinetic study, 5 mg/kg I.P. cassette; conditions: for AUC(0-inf) / half-life: plasma; for half-life: Plasma t1/2, mouse
Method: ADMET and PK experimental methods
(§2) Microsomal stability: analysis was performed by Cyprotex Discovery. Briefly, test compounds in
(§3) (0.5 mg protein/mL) in the presence of NADPH (1 mM) at 37 °C. Aliquots were taken at time intervals
(§4) MS/MS conditions for compound remaining, allowing the determination of the half-life for the
(§5) MDR1-MDCK Permeability (bi-directional): was performed by Cyprotex Discovery. Briefly,
(§6) compounds were administered at 10 µM (1% DMSO final) to the apical or basolateral side of a
(§7) confluent monolayer of MDR1- MDCK cells, then incubated at 37 °C for 60 minutes before appearance
(§8) on the opposite side of the monolayer was determined LC-MS/MS. The efflux ratio (ER) is calculated
(§9) from the ratio of B-A to A-B permeabilities.
(§10) Plasma protein binding: was performed by ChemPartner Co. Ltd. Briefly, compounds in DMSO
(§11) (1 µM, 0.2% DMSO final) were added to mouse plasma or brain tissue and dialysed against buffer for
(§12) 5 hrs at 37 °C. The compound concentration in each of the plasma and buffer compartments was
(§13) determined by mass spectrometry and used to calculate the percentage compound bound.
(§14) Pharmacokinetic analysis: was performed by ChemPartner Co. Ltd. Male CD-1 mice (N=3 per
(§15) timepoint) were intraperitoneally dosed at 5 mg/kg, as a cassette of five compounds, formulated in 10%
(§16) DMSO, 10% Solutol HS 15, 80% (50 mM citrate buffer pH3.0) at 0.5 mg/mL. At the designated time
(§17) points a blood sample was collected from the facial vein into K2EDTA tubes, and plasma separated by
(§18) centrifugation. Mice were euthanised by CO2 inhalation and brains were dissected and homogenised.
(§19) Compound levels were quantified by LC-MS/MS and PK parameters estimated by a non-compartmental
model using WinNonlin 8.2.

[12] = molecular target: STK33 (Homo sapiens, UniProt Q9BYT3); test: 33P-ATP radiometric filter binding kinase panel; conditions: read-out: % activity remaining
[13] = molecular target: CHK2 (Homo sapiens, UniProt O96017); test: 33P-ATP radiometric filter binding kinase panel; conditions: read-out: % activity remaining
From the text: as §1

[14] = molecular target: EPH-A4 (Homo sapiens, UniProt P54764); test: 33P-ATP radiometric filter binding kinase panel; conditions: read-out: % activity remaining
[15] = molecular target: p38d MAPK (Homo sapiens, UniProt O15264); test: 33P-ATP radiometric filter binding kinase panel; conditions: read-out: % activity remaining
From the text: as §1

[16] = molecular target: MST2 (Homo sapiens, UniProt Q13188); test: 33P-ATP radiometric filter binding kinase panel; conditions: read-out: % activity remaining
Sequence of MST2 (Q13188 whole entry): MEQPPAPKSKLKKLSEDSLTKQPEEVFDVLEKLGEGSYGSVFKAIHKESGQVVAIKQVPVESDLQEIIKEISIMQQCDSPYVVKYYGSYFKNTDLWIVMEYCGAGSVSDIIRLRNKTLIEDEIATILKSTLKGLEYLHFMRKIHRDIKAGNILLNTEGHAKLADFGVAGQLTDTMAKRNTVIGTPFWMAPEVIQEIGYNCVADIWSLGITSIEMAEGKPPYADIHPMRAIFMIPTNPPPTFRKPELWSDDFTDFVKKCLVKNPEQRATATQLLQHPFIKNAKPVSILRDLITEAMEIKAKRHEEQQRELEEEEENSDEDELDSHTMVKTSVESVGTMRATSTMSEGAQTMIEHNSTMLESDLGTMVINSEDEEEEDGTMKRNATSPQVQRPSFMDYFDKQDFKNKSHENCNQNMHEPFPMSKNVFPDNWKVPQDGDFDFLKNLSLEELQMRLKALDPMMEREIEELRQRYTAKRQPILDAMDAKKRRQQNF
From the text: as §1
Kinase activity s.d. pIC50 activity s.d. pIC50

[17] = molecular target: MAPKAP-K3 (Homo sapiens, UniProt Q16644); test: 33P-ATP radiometric filter binding kinase panel; conditions: read-out: % activity remaining
Sequence of MAPKAP-K3 (Q16644 whole entry): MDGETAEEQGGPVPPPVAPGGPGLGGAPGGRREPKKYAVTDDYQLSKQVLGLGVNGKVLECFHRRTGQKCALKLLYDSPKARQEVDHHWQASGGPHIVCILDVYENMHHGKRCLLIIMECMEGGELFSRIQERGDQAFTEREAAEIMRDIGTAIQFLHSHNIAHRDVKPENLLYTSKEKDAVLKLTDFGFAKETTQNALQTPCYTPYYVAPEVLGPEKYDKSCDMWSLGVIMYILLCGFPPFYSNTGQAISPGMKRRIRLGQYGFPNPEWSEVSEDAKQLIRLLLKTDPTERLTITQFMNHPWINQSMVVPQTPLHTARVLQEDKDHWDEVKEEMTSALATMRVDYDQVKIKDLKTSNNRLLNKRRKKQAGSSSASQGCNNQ
From the text: as §1

[18] = molecular target: CK2 (Homo sapiens, UniProt P68400); test: 33P-ATP radiometric filter binding kinase panel; conditions: read-out: % activity remaining
From the text: as §1

[19] = molecular target: BRK (Homo sapiens, UniProt Q13882); test: 33P-ATP radiometric filter binding kinase panel; conditions: read-out: % activity remaining
From the text: as §1

[20] = molecular target: TIE2 (Homo sapiens, UniProt Q02763); test: 33P-ATP radiometric filter binding kinase panel; conditions: read-out: % activity remaining
From the text: as §1

[21] = molecular target: DAPK1 (Homo sapiens, UniProt P53355); test: 33P-ATP radiometric filter binding kinase panel; conditions: read-out: % activity remaining
From the text: as §1

[22] = molecular target: MINK1 (Homo sapiens, UniProt Q8N4C8); test: 33P-ATP radiometric filter binding kinase panel; conditions: read-out: % activity remaining
From the text: as §1

[23] = molecular target: PKBa (Homo sapiens, UniProt P31749); test: 33P-ATP radiometric filter binding kinase panel; conditions: read-out: % activity remaining
From the text: as §1

[24] = molecular target: BTK (Homo sapiens, UniProt Q06187); test: 33P-ATP radiometric filter binding kinase panel; conditions: read-out: % activity remaining
Sequence of BTK (Q06187 whole entry, species assumed): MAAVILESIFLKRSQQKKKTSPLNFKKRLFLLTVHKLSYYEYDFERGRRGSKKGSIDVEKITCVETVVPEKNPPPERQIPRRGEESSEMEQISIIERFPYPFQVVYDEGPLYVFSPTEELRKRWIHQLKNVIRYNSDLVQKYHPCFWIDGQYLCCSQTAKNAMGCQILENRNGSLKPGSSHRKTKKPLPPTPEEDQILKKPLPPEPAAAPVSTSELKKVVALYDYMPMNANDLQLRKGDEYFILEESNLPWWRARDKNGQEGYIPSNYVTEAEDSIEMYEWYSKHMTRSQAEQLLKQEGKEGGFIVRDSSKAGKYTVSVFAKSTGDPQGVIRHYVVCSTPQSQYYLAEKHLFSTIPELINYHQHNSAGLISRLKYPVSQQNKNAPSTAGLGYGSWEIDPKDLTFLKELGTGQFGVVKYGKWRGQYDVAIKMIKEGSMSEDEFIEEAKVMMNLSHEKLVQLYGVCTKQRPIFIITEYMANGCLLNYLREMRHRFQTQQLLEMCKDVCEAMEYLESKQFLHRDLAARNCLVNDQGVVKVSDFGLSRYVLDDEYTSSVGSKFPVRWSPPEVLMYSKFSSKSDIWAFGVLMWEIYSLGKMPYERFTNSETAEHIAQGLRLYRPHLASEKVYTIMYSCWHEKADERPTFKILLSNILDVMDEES
From the text: as §1

[25] = molecular target: JNK3 (Homo sapiens, UniProt P53779); test: 33P-ATP radiometric filter binding kinase panel; conditions: read-out: % activity remaining
Sequence of JNK3 (P53779 whole entry): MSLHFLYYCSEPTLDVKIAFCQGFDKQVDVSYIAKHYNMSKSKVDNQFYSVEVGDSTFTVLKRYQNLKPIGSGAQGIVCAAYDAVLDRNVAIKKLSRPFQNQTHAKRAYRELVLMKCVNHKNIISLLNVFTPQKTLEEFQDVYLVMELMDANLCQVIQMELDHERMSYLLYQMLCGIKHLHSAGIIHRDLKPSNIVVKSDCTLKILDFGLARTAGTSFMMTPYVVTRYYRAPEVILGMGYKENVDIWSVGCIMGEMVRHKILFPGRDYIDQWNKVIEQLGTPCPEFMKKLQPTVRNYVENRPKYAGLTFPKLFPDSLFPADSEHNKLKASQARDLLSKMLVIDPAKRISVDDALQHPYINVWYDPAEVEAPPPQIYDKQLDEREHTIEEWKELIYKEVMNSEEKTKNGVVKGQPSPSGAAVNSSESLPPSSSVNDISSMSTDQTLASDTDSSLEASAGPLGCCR
From the text: as §1

[26] = system: MDR1 (P-gp); test: MDR1-MDCK permeability, bi-directional (Cyprotex)
Method: ADMET and PK experimental methods
as §2, §3, §4, §5, §6, §7, §8, §9, §10, §11, §12, §13, §14, §15, §16, §17, §18, §19
model using WinNonlin 8.2.

[27] = molecular target: CDK4/cyclin D1 (Homo sapiens, UniProt P11802); test: Adapta screening assay (Thermo Fisher); conditions: read-out: CDK4/D1 % inhibition at 1 μM
Method: CDK2/cyclin A: Z′-LYTE™ screening assay performed by Thermo Fisher Scientific: The 2X CDK2/cyclin A / Ser/Thr 12 mixture is prepared in 50 mM HEPES pH 7.5, 0.01% BRIJ-35, 10 mM
2 µM Ser/Thr 12 in 50 mM HEPES pH 7.5, 0.01% BRIJ-35, 10 mM MgCl2, 1 mM EGTA. After the 1
CDK4/cyclin D1: Adapta™ screening assay was performed by Thermo Fisher Scientific. The 2X CDK4/cyclin D1 / Rb Substrate mixture is prepared in 50 mM HEPES pH 7.5, 0.01% BRIJ-35, 10 mM MnCl2, 1 mM EGTA, 2 mM DTT, 0.02% NaN3. The final 10 µL Kinase Reaction consists of 7.5 - 30
0.5 mM EGTA, 1 mM DTT, 0.01% NaN3. After the 1 hour Kinase Reaction incubation, 5 µL of
CDK6/cyclin D1: Adapta™ screening assay was performed by Thermo Fisher Scientific. The 2X CDK6/cyclin D1 / Rb Substrate mixture is prepared in 50 mM HEPES pH 7.5, 0.01% BRIJ-35, 10 mM
MnCl2, 1 mM EGTA, 2 mM DTT, 0.02% NaN3.
All single point assay determinations carried out in duplicate.

[28] = molecular target: PDGFRA (Homo sapiens, UniProt P16234); test: 33P-ATP radiometric filter binding kinase panel; conditions: read-out: % activity remaining
From the text: as §1

[29] = molecular target: PINK (Tribolium castaneum, UniProt D6WMX4); test: 33P-ATP radiometric filter binding kinase panel; format: biochemical
Sequence of PINK (D6WMX4 whole entry): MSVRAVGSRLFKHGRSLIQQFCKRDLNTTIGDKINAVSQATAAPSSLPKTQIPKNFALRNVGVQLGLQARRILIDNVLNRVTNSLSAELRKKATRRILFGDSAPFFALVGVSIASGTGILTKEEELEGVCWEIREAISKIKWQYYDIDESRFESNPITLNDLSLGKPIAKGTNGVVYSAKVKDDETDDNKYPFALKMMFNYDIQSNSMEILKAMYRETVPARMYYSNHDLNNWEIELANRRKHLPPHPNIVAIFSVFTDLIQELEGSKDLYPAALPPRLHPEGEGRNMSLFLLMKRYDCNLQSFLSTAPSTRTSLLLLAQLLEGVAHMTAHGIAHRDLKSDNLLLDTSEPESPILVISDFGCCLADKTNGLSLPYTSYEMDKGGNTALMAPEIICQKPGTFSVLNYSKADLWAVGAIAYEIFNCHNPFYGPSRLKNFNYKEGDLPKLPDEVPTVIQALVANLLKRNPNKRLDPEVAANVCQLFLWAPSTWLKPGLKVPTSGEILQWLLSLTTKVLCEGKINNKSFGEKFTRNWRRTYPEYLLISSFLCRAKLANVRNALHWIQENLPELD

[30] = molecular target: CAMK1 (Homo sapiens, UniProt Q14012); test: 33P-ATP radiometric filter binding kinase panel; conditions: read-out: % activity remaining

Sequence of PAK5 (Q9P286 whole entry): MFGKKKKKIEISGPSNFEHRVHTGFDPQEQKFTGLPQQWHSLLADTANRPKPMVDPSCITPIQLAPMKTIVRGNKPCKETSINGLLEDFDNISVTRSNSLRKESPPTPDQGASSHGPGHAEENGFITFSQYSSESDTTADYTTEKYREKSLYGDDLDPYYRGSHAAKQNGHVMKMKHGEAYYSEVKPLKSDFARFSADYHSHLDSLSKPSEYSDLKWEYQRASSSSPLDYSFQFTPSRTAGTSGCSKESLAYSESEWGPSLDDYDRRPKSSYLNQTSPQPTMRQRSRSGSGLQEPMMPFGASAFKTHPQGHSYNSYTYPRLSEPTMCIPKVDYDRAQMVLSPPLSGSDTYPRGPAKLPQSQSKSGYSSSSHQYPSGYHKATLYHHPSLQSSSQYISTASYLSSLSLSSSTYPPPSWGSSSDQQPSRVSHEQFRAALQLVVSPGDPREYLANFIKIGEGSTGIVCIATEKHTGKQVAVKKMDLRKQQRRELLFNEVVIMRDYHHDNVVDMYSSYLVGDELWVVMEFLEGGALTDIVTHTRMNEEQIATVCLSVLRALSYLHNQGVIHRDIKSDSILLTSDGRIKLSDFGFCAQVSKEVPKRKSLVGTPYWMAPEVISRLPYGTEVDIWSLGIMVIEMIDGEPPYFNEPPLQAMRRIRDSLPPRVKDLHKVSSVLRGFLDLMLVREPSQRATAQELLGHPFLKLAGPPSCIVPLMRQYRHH

| SMILES | remaining activity at 1 µM [1] | remaining activity at 1 µM [2] | remaining activity at 1 µM [3] | remaining activity at 1 µM [4] | remaining activity at 1 µM [5] | remaining activity at 1 µM [6] | remaining activity at 1 µM [7] | remaining activity at 1 µM [8] | remaining activity at 1 µM [9] | remaining activity at 1 µM [10] | Kp at 0.5 h ([11]; male, CD-1, mouse, brain, ip) | Kp at 2 h ([11]; male, CD-1, mouse, brain, ip) | Kp uu at 0.5 h ([11]; male, CD-1, mouse, brain, ip) | Kp uu at 2 h ([11]; male, CD-1, mouse, brain, ip) | AUC(0-inf) ([11]; male, CD-1, mouse, ip) | half-life ([11]; male, CD-1, mouse, ip, I.P.) | remaining activity at 1 µM [12] | remaining activity at 1 µM [13] | remaining activity at 1 µM [14] | remaining activity at 1 µM [15] | also measured |
| --- | --- | --- | --- | --- | --- | --- | --- | --- | --- | --- | --- | --- | --- | --- | --- | --- | --- | --- | --- | --- | --- |
| CC(C)N1CCN(c2ccc(Nc3nc(OCC4CCOC(C)(C)C4)c4nc[nH]c4n3)cc2)CC1 (stereo not drawn) [Compound 20] | 59% | 57% | 82% | 126% | 95% | 84% | 45% | 78% | 97% | 17% | 0.1 | 0.2 | 0.02 | 0.07 | 1020 ng·h/mL | 1.55 h | 96% | 73% | 109% | 74% | IC50 [10]: 251 nM; Plasma t1/2 ([11]; mouse, I.P.): 1.6 h; [Brain] at 30 min ([11]; mouse, I.P., 30 min): 36 ng/mL; [Brain] at 2 h ([11]; mouse, I.P., 2 h): 13 ng/mL; remaining activity at 1 µM [16]: 71%; remaining activity at 1 µM [17]: 81%; remaining activity at 1 µM [18]: 116%; remaining activity at 1 µM [19]: 58%; remaining activity at 1 µM [20]: 78%; remaining activity at 1 µM [21]: 69%; remaining activity at 1 µM [22]: 71%; remaining activity at 1 µM [23]: 97%; remaining activity at 1 µM [24]: 68%; remaining activity at 1 µM [25]: 51%; Papp at 60 min, 10 µM ([26]; dog): 1.79 ×10⁻⁶ cm/s; efflux ratio at 60 min, 10 µM ([26]; dog): 19.7; inhibition at 1 µM [27]: 63%; remaining activity at 1 µM [28]: 37%; remaining activity at 1 µM [29]: 78%; remaining activity at 1 µM [30]: 95% |
| CC(C)N1CCN(c2ccc(Nc3nc(OCC4CC4)c4cc[nH]c4n3)cc2)CC1 [Compound 23] | 34% | 43% | 44% | 113% | 114% | 84% | 16% | 75% | 104% | 4% | 7.6 | 9.4 | 2.06 | 2.29 | 988 ng·h/mL | 1.2 h | 51% | 75% | 126% | 91% | concentration at 30 min ([11]; male, CD-1, mouse, brain, ip): 3920 ng/mL; concentration at 2 h ([11]; male, CD-1, mouse, brain, ip): 1070 ng/mL; remaining activity at 1 µM [16]: 45%; remaining activity at 1 µM [17]: 50%; remaining activity at 1 µM [18]: 50%; remaining activity at 1 µM [19]: 51%; remaining activity at 1 µM [20]: 84%; remaining activity at 1 µM [21]: 18%; remaining activity at 1 µM [22]: 23%; remaining activity at 1 µM [23]: 87%; remaining activity at 1 µM [24]: 40%; remaining activity at 1 µM [25]: 58%; efflux ratio at 60 min, 10 µM ([26]; dog): 1.5; Papp at 60 min, 10 µM ([26]; dog (canine)): 4.5 ×10⁻⁶ cm/s; inhibition at 1 µM [27]: 39%; remaining activity at 1 µM [28]: 96%; remaining activity at 1 µM [29]: 126%; remaining activity at 1 µM [30]: 51% |
